Data published in patent US9708314B2, “Heterocyclic amide compound” (NISSAN CHEMICAL INDUSTRIES, LTD., priority 2013, dated 2017).

How the values were obtained:
Assay type in all cases: in vivo
[1] = system: transplanted Oryza sativa; assay: Test Example 1: effect on crop, application before weed generation in submerged conditions; conditions: Application herbicide amount 320 g/ha; Seventeenth Table
Procedure, shortened: (§1)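 Alluvial soil in Wagner pots flooded to 4 cm water depth; weed seeds sown and 2.5 leaf stage rice seedlings transplanted. Emulsion diluted in water applied to water surface on sowing day at stated g/ha. Greenhouse 25° C. to 30° C.; effects scored 0–5 by herbicidal ratio after three weeks.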

Digitaria ciliaris = assay: Test Example 4: herbicidal effect by application to foliage (diluvial soil, plastic box); conditions: Application herbicide amount 320 g/ha; foliage application
Procedure, shortened: (§2)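 Scores run from 0 (herbicidal ratio ≤5%) to 5 (≥90%, almost fully withered) and were assessed three weeks after foliar spraying. Seedlings had been raised for 14 days at 25-30° C in sterilized diluvial soil before treatment, with the emulsion diluted in water to the stated g/ha dose.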

Veronica persica = assay: as above; conditions: Application herbicide amount 320 g/ha; foliage application
Procedure, shortened: as §2

Chenopodium album = assay: as above; conditions: Application herbicide amount 320 g/ha; foliage application
Procedure, shortened: as §2

Stellaria media = assay: as above; conditions: Application herbicide amount 320 g/ha; foliage application
Procedure, shortened: as §2

Amaranthus retroflexus = assay: as above; conditions: Application herbicide amount 320 g/ha; foliage application
Procedure, shortened: as §2

Galium spurium = assay: as above; conditions: Application herbicide amount 320 g/ha; foliage application
Procedure, shortened: as §2

Abutilon theophrasti = assay: as above; conditions: Application herbicide amount 320 g/ha; foliage application
Procedure, shortened: as §2

Apera spica-venti. = assay: as above; conditions: Application herbicide amount 320 g/ha; foliage application
Procedure, shortened: as §2

Avena fatua = assay: as above; conditions: Application herbicide amount 320 g/ha; foliage application
Procedure, shortened: as §2

Alopecurus myosuroides = assay: as above; conditions: Application herbicide amount 320 g/ha; foliage application
Procedure, shortened: as §2

[2] = system: Echinochloa crus-galli var. crus-galli; assay: as above; conditions: Application herbicide amount 320 g/ha; foliage application
Procedure, shortened: as §2

Setaria viridis = assay: as above; conditions: Application herbicide amount 320 g/ha; foliage application
Procedure, shortened: as §2

Lolium multiflorum Lam. = assay: as above; conditions: Application herbicide amount 320 g/ha; foliage application
Procedure, shortened: as §2

Scirpus juncoides = assay: Test Example 1: herbicidal activity, application before weed generation in submerged conditions; conditions: Application herbicide amount 320 g/ha; Seventeenth Table
Procedure, shortened: as §1

[3] = system: Echinochloa oryzacola Vasing.; assay: as above; conditions: Application herbicide amount 320 g/ha; Seventeenth Table
Procedure, shortened: as §1

Monochoria vaginalis = assay: as above; conditions: Application herbicide amount 320 g/ha; Seventeenth Table
Procedure, shortened: as §1

Brassica campestris L. = assay: Test Example 4: effect on crop by application to foliage (diluvial soil, plastic box); conditions: Application herbicide amount 320 g/ha; foliage application
Procedure, shortened: as §2

Glycine max = assay: as above; conditions: Application herbicide amount 320 g/ha; foliage application
Procedure, shortened: as §2

[4] = system: Beta vulgaris ssp. vulgaris; assay: as above; conditions: Application herbicide amount 320 g/ha; foliage application
Procedure, shortened: as §2

[5] = system: directly sowed Oryza sativa; assay: as above; conditions: Application herbicide amount 320 g/ha; foliage application
Procedure, shortened: as §2

Zea mays = assay: as above; conditions: Application herbicide amount 320 g/ha; foliage application
Procedure, shortened: as §2

Triticum aestivum = assay: as above; conditions: Application herbicide amount 320 g/ha; foliage application
Procedure, shortened: as §2

Cc1nnc(NC(=O)c2ccc(C(F)(F)F)n3c(SCC4CC4)nnc23)o1 [1-115]
a: transplanted Oryza sativa (effect on crop grade) [1]: 0 (Herbicidal ratio of 5% or less (almost no effect))
F (Digitaria ciliaris) herbicidal effect grade (Digitaria ciliaris): 5 (Herbicidal ratio of 90% or more (almost completely withered))
R (Veronica persica) herbicidal effect grade (Veronica persica): 4 (Herbicidal ratio of 70% or more and less than 90%)
O (Chenopodium album) herbicidal effect grade (Chenopodium album): 5 (Herbicidal ratio of 90% or more (almost completely withered))
P (Stellaria media) herbicidal effect grade (Stellaria media): 4 (Herbicidal ratio of 70% or more and less than 90%)
N (Amaranthus retroflexus) herbicidal effect grade (Amaranthus retroflexus): 4 (Herbicidal ratio of 70% or more and less than 90%)
Q (Galium spurium) herbicidal effect grade (Galium spurium): 3 (Herbicidal ratio of 40% or more and less than 70%)
M (Abutilon theophrasti) herbicidal effect grade (Abutilon theophrasti): 3 (Herbicidal ratio of 40% or more and less than 70%)
L (Apera spica-venti.) herbicidal effect grade (Apera spica-venti.): 2 (Herbicidal ratio of 20% or more and less than 40%)
I (Avena fatua) herbicidal effect grade (Avena fatua): 2 (Herbicidal ratio of 20% or more and less than 40%)
J (Alopecurus myosuroides) herbicidal effect grade (Alopecurus myosuroides): 2 (Herbicidal ratio of 20% or more and less than 40%)
H (Echinochloa crus-galli var. crus-galli) herbicidal effect grade [2]: 5 (Herbicidal ratio of 90% or more (almost completely withered))
G (Setaria viridis) herbicidal effect grade (Setaria viridis): 5 (Herbicidal ratio of 90% or more (almost completely withered))
K (Lolium multiflorum Lam.) herbicidal effect grade (Lolium multiflorum Lam.): 1 (Herbicidal ratio of 5% or more and less than 20%)
B: Scirpus juncoides (herbicidal effect grade) (Scirpus juncoides): 4 (Herbicidal ratio of 70% or more and less than 90%)
A: Echinochloa oryzicola Vasing. (herbicidal effect grade) [3]: 5 (Herbicidal ratio of 90% or more (almost completely withered))
C: Monochoria vaginalis (herbicidal effect grade) (Monochoria vaginalis): 3 (Herbicidal ratio of 40% or more and less than 70%)
g (Brassica campestris L.) effect on crop grade (Brassica campestris L.): 1 (Herbicidal ratio of 5% or more and less than 20%)
d (Glycine max) effect on crop grade (Glycine max): 2 (Herbicidal ratio of 20% or more and less than 40%)
f (Beta vulgaris ssp. vulgaris) effect on crop grade [4]: 5 (Herbicidal ratio of 90% or more (almost completely withered))
b (directly sowed Oryza sativa) effect on crop grade [5]: 0 (Herbicidal ratio of 5% or less (almost no effect))
c (Zea mays) effect on crop grade (Zea mays): 0 (Herbicidal ratio of 5% or less (almost no effect))
e (Triticum aestivum) effect on crop grade (Triticum aestivum): 2 (Herbicidal ratio of 20% or more and less than 40%)

Cc1nnc(NC(=O)c2ccc(C(F)(F)F)n3c(SCC4CCCO4)nnc23)o1 (centres unmarked) [1-116]
a: transplanted Oryza sativa (effect on crop grade) [1]: 0 (Herbicidal ratio of 5% or less (almost no effect))
F (Digitaria ciliaris) herbicidal effect grade (Digitaria ciliaris): 5 (Herbicidal ratio of 90% or more (almost completely withered))
R (Veronica persica) herbicidal effect grade (Veronica persica): 4 (Herbicidal ratio of 70% or more and less than 90%)
O (Chenopodium album) herbicidal effect grade (Chenopodium album): 5 (Herbicidal ratio of 90% or more (almost completely withered))
P (Stellaria media) herbicidal effect grade (Stellaria media): 5 (Herbicidal ratio of 90% or more (almost completely withered))
N (Amaranthus retroflexus) herbicidal effect grade (Amaranthus retroflexus): 4 (Herbicidal ratio of 70% or more and less than 90%)
Q (Galium spurium) herbicidal effect grade (Galium spurium): 3 (Herbicidal ratio of 40% or more and less than 70%)
M (Abutilon theophrasti) herbicidal effect grade (Abutilon theophrasti): 4 (Herbicidal ratio of 70% or more and less than 90%)
L (Apera spica-venti.) herbicidal effect grade (Apera spica-venti.): 1 (Herbicidal ratio of 5% or more and less than 20%)
I (Avena fatua) herbicidal effect grade (Avena fatua): 3 (Herbicidal ratio of 40% or more and less than 70%)
J (Alopecurus myosuroides) herbicidal effect grade (Alopecurus myosuroides): 1 (Herbicidal ratio of 5% or more and less than 20%)
H (Echinochloa crus-galli var. crus-galli) herbicidal effect grade [2]: 5 (Herbicidal ratio of 90% or more (almost completely withered))
G (Setaria viridis) herbicidal effect grade (Setaria viridis): 4 (Herbicidal ratio of 70% or more and less than 90%)
K (Lolium multiflorum Lam.) herbicidal effect grade (Lolium multiflorum Lam.): 1 (Herbicidal ratio of 5% or more and less than 20%)
B: Scirpus juncoides (herbicidal effect grade) (Scirpus juncoides): 4 (Herbicidal ratio of 70% or more and less than 90%)
A: Echinochloa oryzicola Vasing. (herbicidal effect grade) [3]: 5 (Herbicidal ratio of 90% or more (almost completely withered))
C: Monochoria vaginalis (herbicidal effect grade) (Monochoria vaginalis): 2 (Herbicidal ratio of 20% or more and less than 40%)
g (Brassica campestris L.) effect on crop grade (Brassica campestris L.): 4 (Herbicidal ratio of 70% or more and less than 90%)
d (Glycine max) effect on crop grade (Glycine max): 3 (Herbicidal ratio of 40% or more and less than 70%)
f (Beta vulgaris ssp. vulgaris) effect on crop grade [4]: 5 (Herbicidal ratio of 90% or more (almost completely withered))
b (directly sowed Oryza sativa) effect on crop grade [5]: 0 (Herbicidal ratio of 5% or less (almost no effect))
c (Zea mays) effect on crop grade (Zea mays): 0 (Herbicidal ratio of 5% or less (almost no effect))
e (Triticum aestivum) effect on crop grade (Triticum aestivum): 2 (Herbicidal ratio of 20% or more and less than 40%)

Cc1nnc(NC(=O)c2ccc(C(F)(F)F)n3c(N4CCSCC4)nnc23)o1 [1-118]
a: transplanted Oryza sativa (effect on crop grade) [1]: 2 (Herbicidal ratio of 20% or more and less than 40%)
F (Digitaria ciliaris) herbicidal effect grade (Digitaria ciliaris): 5 (Herbicidal ratio of 90% or more (almost completely withered))
R (Veronica persica) herbicidal effect grade (Veronica persica): 5 (Herbicidal ratio of 90% or more (almost completely withered))
O (Chenopodium album) herbicidal effect grade (Chenopodium album): 5 (Herbicidal ratio of 90% or more (almost completely withered))
P (Stellaria media) herbicidal effect grade (Stellaria media): 4 (Herbicidal ratio of 70% or more and less than 90%)
N (Amaranthus retroflexus) herbicidal effect grade (Amaranthus retroflexus): 4 (Herbicidal ratio of 70% or more and less than 90%)
Q (Galium spurium) herbicidal effect grade (Galium spurium): 4 (Herbicidal ratio of 70% or more and less than 90%)
M (Abutilon theophrasti) herbicidal effect grade (Abutilon theophrasti): 4 (Herbicidal ratio of 70% or more and less than 90%)
L (Apera spica-venti.) herbicidal effect grade (Apera spica-venti.): 3 (Herbicidal ratio of 40% or more and less than 70%)
I (Avena fatua) herbicidal effect grade (Avena fatua): 3 (Herbicidal ratio of 40% or more and less than 70%)
J (Alopecurus myosuroides) herbicidal effect grade (Alopecurus myosuroides): 1 (Herbicidal ratio of 5% or more and less than 20%)
H (Echinochloa crus-galli var. crus-galli) herbicidal effect grade [2]: 5 (Herbicidal ratio of 90% or more (almost completely withered))
G (Setaria viridis) herbicidal effect grade (Setaria viridis): 5 (Herbicidal ratio of 90% or more (almost completely withered))
K (Lolium multiflorum Lam.) herbicidal effect grade (Lolium multiflorum Lam.): 1 (Herbicidal ratio of 5% or more and less than 20%)
B: Scirpus juncoides (herbicidal effect grade) (Scirpus juncoides): 2 (Herbicidal ratio of 20% or more and less than 40%)
A: Echinochloa oryzicola Vasing. (herbicidal effect grade) [3]: 3 (Herbicidal ratio of 40% or more and less than 70%)
C: Monochoria vaginalis (herbicidal effect grade) (Monochoria vaginalis): 0 (Herbicidal ratio of 5% or less (almost no effect))
g (Brassica campestris L.) effect on crop grade (Brassica campestris L.): 5 (Herbicidal ratio of 90% or more (almost completely withered))
d (Glycine max) effect on crop grade (Glycine max): 4 (Herbicidal ratio of 70% or more and less than 90%)
f (Beta vulgaris ssp. vulgaris) effect on crop grade [4]: 5 (Herbicidal ratio of 90% or more (almost completely withered))
b (directly sowed Oryza sativa) effect on crop grade [5]: 4 (Herbicidal ratio of 70% or more and less than 90%)
c (Zea mays) effect on crop grade (Zea mays): 0 (Herbicidal ratio of 5% or less (almost no effect))
e (Triticum aestivum) effect on crop grade (Triticum aestivum): 1 (Herbicidal ratio of 5% or more and less than 20%)

Cc1nnc(NC(=O)c2ccc(C(F)(F)F)n3c(N4CC[S+]([O-])CC4)nnc23)o1 [1-119]
a: transplanted Oryza sativa (effect on crop grade) [1]: 3 (Herbicidal ratio of 40% or more and less than 70%)
F (Digitaria ciliaris) herbicidal effect grade (Digitaria ciliaris): 5 (Herbicidal ratio of 90% or more (almost completely withered))
R (Veronica persica) herbicidal effect grade (Veronica persica): 5 (Herbicidal ratio of 90% or more (almost completely withered))
O (Chenopodium album) herbicidal effect grade (Chenopodium album): 5 (Herbicidal ratio of 90% or more (almost completely withered))
P (Stellaria media) herbicidal effect grade (Stellaria media): 4 (Herbicidal ratio of 70% or more and less than 90%)
N (Amaranthus retroflexus) herbicidal effect grade (Amaranthus retroflexus): 5 (Herbicidal ratio of 90% or more (almost completely withered))
Q (Galium spurium) herbicidal effect grade (Galium spurium): 4 (Herbicidal ratio of 70% or more and less than 90%)
M (Abutilon theophrasti) herbicidal effect grade (Abutilon theophrasti): 5 (Herbicidal ratio of 90% or more (almost completely withered))
L (Apera spica-venti.) herbicidal effect grade (Apera spica-venti.): 3 (Herbicidal ratio of 40% or more and less than 70%)
I (Avena fatua) herbicidal effect grade (Avena fatua): 3 (Herbicidal ratio of 40% or more and less than 70%)
J (Alopecurus myosuroides) herbicidal effect grade (Alopecurus myosuroides): 3 (Herbicidal ratio of 40% or more and less than 70%)
H (Echinochloa crus-galli var. crus-galli) herbicidal effect grade [2]: 5 (Herbicidal ratio of 90% or more (almost completely withered))
G (Setaria viridis) herbicidal effect grade (Setaria viridis): 4 (Herbicidal ratio of 70% or more and less than 90%)
K (Lolium multiflorum Lam.) herbicidal effect grade (Lolium multiflorum Lam.): 2 (Herbicidal ratio of 20% or more and less than 40%)
B: Scirpus juncoides (herbicidal effect grade) (Scirpus juncoides): 1 (Herbicidal ratio of 5% or more and less than 20%)
A: Echinochloa oryzicola Vasing. (herbicidal effect grade) [3]: 2 (Herbicidal ratio of 20% or more and less than 40%)
C: Monochoria vaginalis (herbicidal effect grade) (Monochoria vaginalis): 0 (Herbicidal ratio of 5% or less (almost no effect))
g (Brassica campestris L.) effect on crop grade (Brassica campestris L.): 5 (Herbicidal ratio of 90% or more (almost completely withered))
d (Glycine max) effect on crop grade (Glycine max): 4 (Herbicidal ratio of 70% or more and less than 90%)
f (Beta vulgaris ssp. vulgaris) effect on crop grade [4]: 5 (Herbicidal ratio of 90% or more (almost completely withered))
b (directly sowed Oryza sativa) effect on crop grade [5]: 3 (Herbicidal ratio of 40% or more and less than 70%)
c (Zea mays) effect on crop grade (Zea mays): 2 (Herbicidal ratio of 20% or more and less than 40%)
e (Triticum aestivum) effect on crop grade (Triticum aestivum): 3 (Herbicidal ratio of 40% or more and less than 70%)
